# Assay results published in publication PMC4608832, “Synthesis of New 4-Aminoquinolines and Evaluation of Their In Vitro Activity against Chloroquine-Sensitive and Chloroquine-Resistant Plasmodium falciparum” (PLoS ONE, 2015).
# Like-named read-outs stand apart in the source and are kept apart here.
# Columns and labels:
# [1] = system: P. falciparum 3D7 (CQ-sensitive); experiment: In vitro antiplasmodial activity, 3H-hypoxanthine incorporation, strain 3D7; assay type: cell-based; details: Plasmodium falciparum, IC50 ± SD
# Description: (§1) The following strains of Plasmodium falciparum were used in this study: F32 (Tanzania), Dd2 (SE Asia), K1 (SE Asia), FcB1 (Colombia), K14 (Cambodia) and 3D7 (Africa). […] Parasites at the ring stage (laboratory A) or asynchronous parasites (laboratory B) were grown in human A+ or O+ red blood cells at a 1.5% (laboratory A) or 2% (laboratory B) haematocrit and a 0.8–1% parasitaemia. Synchronization of the parasites was performed by sorbitol treatment.
# (§2) Further dilutions were in complete culture medium. The complexes were tested for their inhibitory effect toward P. falciparum intraerythrocytic development. […] 100 μL from a culture at a 3% (laboratory A) or 4% (laboratory B) hematocrit in complete medium was added per well. […] Plates were freeze-thawed and harvested on filters. […] The percentage of growth inhibition was calculated from the parasite-associated radioactivity. 100% ^3H-hypoxanthine incorporation was determined from a control grown in the absence of drug or test compound.
# P. falciparum Dd2 = experiment: In vitro antiplasmodial activity, 3H-hypoxanthine incorporation, strain Dd2; assay type: cell-based; details: Plasmodium falciparum, IC50 ± SD
# Description: as §1, §2
# [2] = system: P. falciparum K1 (CQ-resistant); experiment: In vitro antiplasmodial activity, 3H-hypoxanthine incorporation, strain K1; assay type: cell-based; details: Plasmodium falciparum, IC50 ± SD
# Description: as §1, §2
# in vitro = details: for microsomal CLint at 1 μM / half-life at 1 μM: human; for microsomal CLint at 1 μM: pH 7.4
# Description: The evaluation of microsomal stability was performed by Cyprotex US, LLC, Watertown, MA. […] After separation on an HILIC HPLC colum (Sepax HILIC […] 2.1 x 30 mm) using an acetonitrile-water gradient system, peaks were analyzed by mass spectrometry (MS) using ESI ionization in MRM mode. The signal was optimized for each compound by ESI positive or negative ionization mode. An MS2 scan or an SIM scan was used to optimize the fragmenter voltage and a product ion analysis was used to identify the best fragment for analysis, and the collision energy was optimized using a product ion or MRM scan. An ionization ranking was assigned indicating the compound’s ease of ionization.
# A control reaction omitting NADPH was performed for each compound in order to detect any NADPH-independent degradation. Aliquots were removed at 0, 10, 20, 40, and 60 min and mixed with an equal volume of ice-cold Stop Solution (methanol containing haloperidol, diclofenac, or other internal standard). The stopped reactions were further incubated for at least 10 min at -20°C, and an additional volume of water was added. The samples were centrifuged to remove precipitated protein, and the supernatants were analyzed by LC/MS/MS to quantify the remaining parent. Data were converted to % remaining by dividing by the time zero concentration value, and fitted to a first-order decay model to determine half-life values. Intrinsic clearance values were calculated from the half-life and protein concentrations by using the equation CLint = ln 2 / t1/2 [microsomal protein].
# [3] = set-up: method as in PMID 11805197; details: elimination of the active metabolite after AQ; cited from earlier work
# [4] = system: P. falciparum F32 (CQ-sensitive); experiment: In vitro antiplasmodial activity, 3H-hypoxanthine incorporation, strain F32; assay type: cell-based; details: Plasmodium falciparum
# Description: as §1, §2
# (§3) IC50 ± SD values (nM) determined from independent experiments performed in triplicate under the conditions of laboratory B (Paris).
# [5] = system: P. falciparum K14 (CQ-resistant); experiment: In vitro antiplasmodial activity, 3H-hypoxanthine incorporation, strain K14; assay type: cell-based; details: Plasmodium falciparum, read-out: Antiplasmodial activity, IC50, K14
# Description: as §1, §2, §3
# [6] = system: P. falciparum FcB1 (CQ-resistant); experiment: In vitro antiplasmodial activity, 3H-hypoxanthine incorporation, strain FcB1; assay type: cell-based; details: Plasmodium falciparum
# Description: as §1, §2, §3
# [7] = Cytotoxicity, MTT, L6 cells; assay type: cell-based; details: rat, L-6 cells, concentration inducing 50% of cell growth arrest, three days
# Description: (§4) The rat L-6 and human MRC-5 cell lines were routinely grown in RPMI 1640 supplemented with 11 mM glucose, 27.5 mM NaHCO3, 100 UI/mL penicillin, 100 μg/mL streptomycin and 10% fetal calf serum (RPMI-FCS), in a 5% CO2 incubator at 37°C. For cytotoxicity assays, 100 μL per well of a 2×10^4 cells/mL suspension in RPMI-FCS were deposited in a 96-well microplate and incubated overnight in culture conditions. Then decreasing concentrations of the compounds to test were established by twofold serial dilutions in RPMI-FCS and distributed at a rate of 100 μL per well and the microplate was put back in the incubator for an additional three (L-6) or five (MRC-5) day period. Then the supernatant in each well was discarded and replaced by 100 μL of MTT 1 mg/mL in RPMI-FCS. The microplate was re-incubated in culture conditions for three hours, then 100 μL of 10% SDS was added by well. The cells were left overnight in the incubator then the OD at 540nm was measured with the Bio-Tek FL600™ microplate reader equipped with the KC4™ software. […] The selectivity of each compound to P. falciparum was assessed through the selectivity index (SI), defined as CC50 (to L6 or MRC5 cells) / IC50 (to P. falciparum).
# [8] = Cytotoxicity, MTT, MRC5 cells; assay type: cell-based; details: human, MRC-5 cells, concentration inducing 50% of cell growth arrest, five days
# Description: as §4
# [9] = 3D7, laboratory A (Marseille), 5% CO2, 10% O2, 85% N2, read-out: Antiplasmodial activity, IC50, 3D7
# [10] = 3D7, laboratory B (Paris), candle jar ~17% O2, 3% CO2, 80% N2, read-out: Antiplasmodial activity, IC50, 3D7
# [11] = DD2, laboratory A (Marseille), 5% CO2, 10% O2, 85% N2, Dd2 CQ-resistant under these conditions, read-out: Antiplasmodial activity, IC50, Dd2
# [12] = DD2, laboratory B (Paris), candle jar ~17% O2, 3% CO2, 80% N2, Dd2 CQ-sensitive under these conditions, read-out: Antiplasmodial activity, IC50, Dd2
# [13] = K1, laboratory A (Marseille), 5% CO2, 10% O2, 85% N2, read-out: Antiplasmodial activity, IC50, K1
# [14] = K1, laboratory B (Paris), candle jar ~17% O2, 3% CO2, 80% N2, read-out: Antiplasmodial activity, IC50, K1
compound,measurement,setting,value
"CCN(CC)Cc1cc(Nc2ccnc3cc(Cl)ccc23)ccc1O [AQ, amodiaquine, reference compound]",IC50,[1]; [9],24.6 ± 3.06 nM
same,IC50,[1]; [10],11.9 ± 1 nM
same,IC50,P. falciparum Dd2; [11],31.6 ± 7.77 nM
same,IC50,P. falciparum Dd2; [12],11.3 ± 0.64 nM
same,IC50,[2]; [13],34.3 ± 0.58 nM
same,IC50,[2]; [14],9.6 ± 0.51 nM
same,microsomal CLint at 1 μM,in vitro; microsomes,431 ± 33.4 µL/min/mg
same,half-life at 1 μM,"in vitro; microsomes, pH 7.4, NADPH-dep. t1/2",0.09 ± 0.007 h
same,half-life at 1 μM,"in vitro; microsomes, pH 7.4, NADPH-free t1/2",> 4 h
same,terminal half-life,[3],~ 100 h
"CCN(CC)CCCC(C)Nc1ccnc2cc(Cl)ccc12 (stereo not shown) [CQ, chloroquine]",IC50,"[1]; 3D7, read-out: Antiplasmodial activity, IC50, 3D7, laboratory A (Marseille), 5% CO2, 10% O2, 85% N2",17.6 ± 0.71 nM
same,IC50,"[1]; 3D7, read-out: Antiplasmodial activity, IC50, 3D7, laboratory B (Paris), candle jar ~17% O2, 3% CO2, 80% N2",18 ± 12.3 nM
same,IC50,"P. falciparum Dd2; DD2, read-out: Antiplasmodial activity, IC50, Dd2, laboratory A (Marseille), 5% CO2, 10% O2, 85% N2, Dd2 CQ-resistant under these conditions",522 ± 95.7 nM
same,IC50,"P. falciparum Dd2; DD2, read-out: Antiplasmodial activity, IC50, Dd2, laboratory B (Paris), candle jar ~17% O2, 3% CO2, 80% N2, Dd2 CQ-sensitive under these conditions",35.1 ± 12.1 nM
same,IC50,"[2]; K1, read-out: Antiplasmodial activity, IC50, K1, laboratory A (Marseille), 5% CO2, 10% O2, 85% N2",1090 ± 164 nM
same,IC50,"[2]; K1, read-out: Antiplasmodial activity, IC50, K1, laboratory B (Paris), candle jar ~17% O2, 3% CO2, 80% N2",124 ± 48 nM
same,IC50,"[4]; F32, read-out: Antiplasmodial activity, IC50, F32",33.9 ± 12.3 nM
same,IC50,[5],103 ± 92.5 nM
same,IC50,"[6]; FCB1, read-out: Antiplasmodial activity, IC50, FcB1",111 ± 43 nM
same,NADPH-dep. t1/2,"in vitro; human liver microsomes, [Compd] = 1 μM, [protein] = 0.3 mg/mL, with NADPH",2.22 ± 0.2587 h
same,microsomal CLint at 1 μM,in vitro; microsomes,17.5 ± 2.03 µL/min/mg
same,half-life at 1 μM,"in vitro; microsomes, pH 7.4, NADPH-dep. t1/2, human liver microsomes, [Compd] = 1 μM, [protein] = 0.3 mg/mL, with NADPH",2.22 ± 0.258 h
same,half-life at 1 μM,"in vitro; microsomes, pH 7.4, NADPH-free t1/2, human liver microsomes, [Compd] = 1 μM, [protein] = 0.3 mg/mL, without NADPH",> 4 h
"CCN(CC)Cc1ccccc1CNc1ccnc2cc(Cl)ccc12 [Compound 1, 7-Chloro-N-(2-((diethylamino)methyl)benzyl)quinolin-4-amine]",IC50,[1]; [9],13.5 ± 0.71 nM
same,IC50,[1]; [10],21.6 ± 3.11 nM
same,IC50,P. falciparum Dd2; [11],21.3 ± 2.52 nM
same,IC50,P. falciparum Dd2; [12],19.4 ± 2.18 nM
same,IC50,[2]; [13],52.7 ± 0.99 nM
same,IC50,[2]; [14],14.6 ± 0.36 nM
same,IC50,"[4]; F32, laboratory B (Paris), IC50 ± SD, read-out: Antiplasmodial activity, IC50, F32",30 ± 15.2 nM
same,IC50,"[5]; laboratory B (Paris), IC50 ± SD",13.5 ± 4.66 nM
same,IC50,"[6]; FCB1, laboratory B (Paris), IC50 ± SD, read-out: Antiplasmodial activity, IC50, FcB1",12.1 ± 1.2 nM
same,CC50 at 3 days,[7],27700 ± 1730 nM
same,CC50 at 5 days,[8],26400 ± 1750 nM
same,microsomal CLint at 1 μM,in vitro; human liver microsomes,45.6 ± 0.12 µL/min/mg
same,half-life at 1 μM,"in vitro; human liver microsomes, pH 7.4, NADPH-dep. t1/2, human liver microsomes, [Compd] = 1 μM, [protein] = 0.3 mg/mL, with NADPH",0.848 ± 0.00917 h
same,half-life at 1 μM,"in vitro; human liver microsomes, pH 7.4, NADPH-free t1/2, human liver microsomes, [Compd] = 1 μM, [protein] = 0.3 mg/mL, without NADPH",> 4 h
